# Measurements as given in patent US12629374B2, “Antimalarial agents” (Merck Sharp & Dohme LLC, priority 2020, dated 2026).
# Test system: ring stage parasites
# Assay: Parasite growth potency assay, 72 hours, LDH readout
# Assay type: cell-based
# Conditions: 72 h, parasite growth measured by LDH assay after 72 hours at 37° C.; 0.7% rings, 2% haematocrit; read-out: EC50
# In short: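 Parasite growth was quantified by LDH assay after a −80 °C freeze-thaw. Before that, compound was incubated for 72 h at 37 °C under humidified gas with ring-stage cultures adjusted to 0.7% parasitemia and 2% haematocrit in serum- and albumax-supplemented RPMI-Hepes.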
row,Structure (SMILES),EC50
1,"CCC1(CC)CC(=O)N(Cc2ccnc(C(=O)N[C@H]3CCOc4ccccc43)c2)C(=N)N1 [Example 22, [1-[[2-[[(4S)-chroman-4-yl]carbamoyl]-4-pyridyl]methyl]-4,4-diethyl-6-oxo-hexahydropyrimidin-2-ylidene]ammonium; 2,2,2-trifluoroacetate]",17.2 nM
2,"CCC1(CC)CC(=O)N(Cc2cc(C(=O)N[C@H]3CCOc4ccccc43)ccn2)C(=N)N1 [Example 23, [1-[[4-[[(4S)-chroman-4-yl]carbamoyl]-2-pyridyl]methyl]-4,4-diethyl-6-oxo-hexahydropyrimidin-2-ylidene]ammonium; 2,2,2-trifluoroacetate]",11.5 nM
3,"CCC1(CC)CC(=O)N(Cc2cncc(C(=O)N[C@H]3CCOc4ccccc43)c2)C(=N)N1 [Example 24, [1-[[5-[[(4S)-chroman-4-yl]carbamoyl]-3-pyridyl]methyl]-4,4-diethyl-6-oxo-hexahydropyrimidin-2-ylidene]ammonium; 2,2,2-trifluoroacetate]",10.1 nM
4,"CC(C)[C@]1(C)CC(=O)N([C@H](C)c2cccc(C(=O)N[C@H]3CCOc4ccccc43)c2)C(=N)N1 [Example 25, [(4S)-1-[1-[3-[[(4S)-chroman-4-yl]carbamoyl]phenyl]ethyl]-4-isopropyl-4-methyl-6-oxo-hexahydropyrimidin-2-ylidene]ammonium; 2,2,2-trifluoroacetate]",4.4 nM
5,"CC(C)[C@]1(C)CC(=O)N([C@@H](c2cccc(C(=O)N[C@H]3CCOc4ccccc43)c2)C23CC(C2)C3)C(=N)N1 [Example 26, [(4S)-1-[1-bicyclo[1.1.1]pentanyl-[3-[[(4S)-chroman-4-yl]carbamoyl]phenyl]methyl]-4-isopropyl-4-methyl-6-oxo-hexahydropyrimidin-2-ylidene]ammonium; 2,2,2-trifluoroacetate]",8.9 nM
6,"CC(C)[C@]1(C)CC(=O)N([C@H](C)c2cccc(C(=O)N[C@@H]3c4ccccc4C[C@H]3O)c2)C(=N)N1 [Example 27, [(4S)-1-[1-[3-[[(1R,2R)-2-hydroxyindan-1-yl]carbamoyl]phenyl]ethyl]-4-isopropyl-4-methyl-6-oxo-hexahydropyrimidin-2-ylidene]ammonium; 2,2,2-trifluoroacetate]",3.2 nM
7,"CC(C)[C@]1(C)CC(=O)N([C@@H](c2cccc(C(=O)N[C@@H]3c4ccccc4C[C@H]3O)c2)C23CC(C2)C3)C(=N)N1 [Example 28, [(4S)-1-[1-bicyclo[1.1.1]pentanyl-[3-[[(1R,2R)-2-hydroxyindan-1-yl]carbamoyl]phenyl]methyl]-4-isopropyl-4-methyl-6-oxo-hexahydropyrimidin-2-ylidene]ammonium; 2,2,2-trifluoroacetate]",1.1 nM
8,"CC(C)[C@]1(C)CC(=O)N(Cc2cc(F)cc(C(=O)N[C@H]3CCOc4ccccc43)c2)C(=N)N1 [Example 29, [(4S)-1-[[3-[[(4S)-chroman-4-yl]carbamoyl]-5-fluoro-phenyl]methyl]-4-isopropyl-4-methyl-6-oxo-hexahydropyrimidin-2-ylidene]ammonium; 2,2,2-trifluoroacetate]",7.7 nM
9,"CC(C)[C@]1(C)CC(=O)N(Cc2cc(F)cc(C(=O)N[C@@H]3c4ccccc4C[C@H]3O)c2)C(=N)N1 [Example 30, [(4S)-1-[[3-fluoro-5-[[(1R,2R)-2-hydroxyindan-1-yl]carbamoyl]phenyl]methyl]-4-isopropyl-4-methyl-6-oxo-hexahydropyrimidin-2-ylidene]ammonium; 2,2,2-trifluoroacetate]",3.1 nM
10,"CCC1(CC)CC(=O)N([C@H](C)c2cccc(C(=O)N[C@H]3CCOc4ccccc43)c2)C(=N)N1 [Example 31, [1-[1-[3-[[(4S)-chroman-4-yl]carbamoyl]phenyl]ethyl]-4,4-diethyl-6-oxo-hexahydropyrimidin-2-ylidene]ammonium; 2,2,2-trifluoroacetate]",0.8 nM
11,"CCC1(CC)CC(=O)N([C@@H](c2cccc(C(=O)N[C@H]3CCOc4ccccc43)c2)C23CC(C2)C3)C(=N)N1 [Example 32, [1-[1-bicyclo[1.1.1]pentanyl-[3-[[(4S)-chroman-4-yl]carbamoyl]phenyl]methyl]-4,4-diethyl-6-oxo-hexahydropyrimidin-2-ylidene]ammonium; 2,2,2-trifluoroacetate]",2 nM
12,"CCC1(CC)CC(=O)N([C@H](C)c2cccc(C(=O)N[C@@H]3c4ccccc4C[C@H]3O)c2)C(=N)N1 [Example 33, [4,4-diethyl-1-[1-[3-[[(1R,2R)-2-hydroxyindan-1-yl]carbamoyl]phenyl]ethyl]-6-oxo-hexahydropyrimidin-2-ylidene]ammonium; 2,2,2-trifluoroacetate]",2.8 nM
13,"CCC1(CC)CC(=O)N([C@@H](c2cccc(C(=O)N[C@@H]3c4ccccc4C[C@H]3O)c2)C23CC(C2)C3)C(=N)N1 [Example 34, [1-[1-bicyclo[1.1.1]pentanyl-[3-[[(1R,2R)-2-hydroxyindan-1-yl]carbamoyl]phenyl]methyl]-4,4-diethyl-6-oxo-hexahydropyrimidin-2-ylidene]ammonium; 2,2,2-trifluoroacetate]",0.5 nM
14,"CCC1(CC)CC(=O)N(Cc2cc(F)cc(C(=O)N[C@@H]3c4ccccc4C[C@H]3O)c2)C(=N)N1 [Example 35, [4,4-diethyl-1-[[3-fluoro-5-[[(1R,2R)-2-hydroxyindan-1-yl]carbamoyl]phenyl]methyl]-6-oxo-hexahydropyrimidin-2-ylidene]ammonium; 2,2,2-trifluoroacetate]",2 nM
15,"CCC1(CC)CC(=O)N(Cc2ccnc(C(=O)N[C@@H]3c4ccccc4C[C@H]3O)c2)C(=N)N1 [Example 36, [4,4-diethyl-1-[[2-[[(1R,2R)-2-hydroxyindan-1-yl]carbamoyl]-4-pyridyl]methyl]-6-oxo-hexahydropyrimidin-2-ylidene]ammonium; 2,2,2-trifluoroacetate]",16.8 nM
16,"CCC1(CC)CC(=O)N(Cc2cccc(C(=O)N[C@@H]3c4ccccc4C[C@H]3O)n2)C(=N)N1 [Example 37, [4,4-diethyl-1-[[6-[[(1R,2R)-2-hydroxyindan-1-yl]carbamoyl]-2-pyridyl]methyl]-6-oxo-hexahydropyrimidin-2-ylidene]ammonium; 2,2,2-trifluoroacetate]",14.4 nM
17,"CCC1(CC)CC(=O)N(Cc2cc(C(=O)N[C@@H]3c4ccccc4C[C@H]3O)ccn2)C(=N)N1 [Example 38, [4,4-diethyl-1-[[4-[[(1R,2R)-2-hydroxyindan-1-yl]carbamoyl]-2-pyridyl]methyl]-6-oxo-hexahydropyrimidin-2-ylidene]ammonium; 2,2,2-trifluoroacetate]",31.3 nM
18,"CCC1(CC)CC(=O)N(Cc2cncc(C(=O)N[C@@H]3c4ccccc4C[C@H]3O)c2)C(=N)N1 [Example 39, [4,4-diethyl-1-[[5-[[(1R,2R)-2-hydroxyindan-1-yl]carbamoyl]pyridin-1-ium-3-yl]methyl]-6-oxo-hexahydropyrimidin-2-ylidene]ammonium; 2,2,2-trifluoroacetate]",30.4 nM
19,"CCC1(CC)CC(=O)N([C@H](Cc2ccccc2)c2cccc(C(=O)N[C@H]3CCOc4ccccc43)c2)C(=N)N1 [Example 40, [1-[1-[3-[[(4S)-chroman-4-yl]carbamoyl]phenyl]-2-phenyl-ethyl]-4,4-diethyl-6-oxo-hexahydropyrimidin-2-ylidene]ammonium; 2,2,2-trifluoroacetate]",9.7 nM
20,"C=CC[C@H](c1cccc(C(=O)N[C@H]2CCOc3ccccc32)c1)N1C(=N)NC(CC)(CC)CC1=O [Example 41, [1-[1-[3-[[(4S)-chroman-4-yl]carbamoyl]phenyl]but-3-enyl]-4,4-diethyl-6-oxo-hexahydropyrimidin-2-ylidene]ammonium; 2,2,2-trifluoroacetate]",0.9 nM
21,"CCC1(CC)NC(=N)N(Cc2cc(F)cc(C(=O)N[C@H]3CCOc4ccccc43)c2)C(=O)C1C (stereo partly drawn) [Example 42, [1-[[3-[[(4S)-chroman-4-yl]carbamoyl]-5-fluoro-phenyl]methyl]-4,4-diethyl-5-methyl-6-oxo-hexahydropyrimidin-2-ylidene]ammonium; 2,2,2-trifluoroacetate]",10.3 nM
22,"CC[C@]1(C(C)C)CC(=O)N(Cc2cc(F)cc(C(=O)N[C@H]3CCOc4ccccc43)c2)C(=N)N1 [Example 44, [(4R)-1-[[3-[[(4S)-chroman-4-yl]carbamoyl]-5-fluoro-phenyl]methyl]-4-ethyl-4-isopropyl-6-oxo-hexahydropyrimidin-2-ylidene]ammonium; 2,2,2-trifluoroacetate]",2.6 nM
23,"CC[C@]1(C(C)C)CC(=O)N(Cc2cc(F)cc(C(=O)N[C@@H]3c4ccccc4C[C@H]3O)c2)C(=N)N1 [Example 45, [(4R)-4-ethyl-1-[[3-fluoro-5-[[(1R,2R)-2-hydroxyindan-1-yl]carbamoyl]phenyl]methyl]-4-isopropyl-6-oxo-hexahydropyrimidin-2-ylidene]ammonium; 2,2,2-trifluoroacetate]",2.6 nM
24,"CC[C@]1(CC(C)C)CC(=O)N(Cc2cc(F)cc(C(=O)N[C@H]3CCOc4ccccc43)c2)C(=N)N1 [Example 46, [(4S)-1-[[3-[[(4S)-chroman-4-yl]carbamoyl]-5-fluoro-phenyl]methyl]-4-ethyl-4-isobutyl-6-oxo-hexahydropyrimidin-2-ylidene]ammonium; 2,2,2-trifluoroacetate]",10.4 nM
25,"CC[C@]1(CC(C)C)CC(=O)N(Cc2cc(F)cc(C(=O)N[C@@H]3c4ccccc4C[C@H]3O)c2)C(=N)N1 [Example 47, [(4S)-4-ethyl-1-[[3-fluoro-5-[[(1R,2R)-2-hydroxyindan-1-yl]carbamoyl]phenyl]methyl]-4-isobutyl-6-oxo-hexahydropyrimidin-2-ylidene]ammonium; 2,2,2-trifluoroacetate]",6.5 nM

# Same assay, conditions: parasite growth measured by LDH assay after 72 hours at 37° C.; 0.7% rings, 2% haematocrit; trifluoroacetate; read-out: EC50
row,Structure (SMILES),EC50
1,"CCC1(CC)NC(=N)N(Cc2cc(F)cc(C(=O)N[C@H]3CCOc4ccccc43)c2)C(=O)C1C (stereo partly drawn) [Example 43, [1-[[3-[[(4S)-chroman-4-yl]carbamoyl]-5-fluoro-phenyl]methyl]-4,4-diethyl-5-methyl-6-oxo-hexahydropyrimidin-2-ylidene]ammonium; 2,2,2-trifluoroacetate]",7.2 nM
